Experiment [1] has as its target T1, endothelin converting enzyme (ECE) (Homo sapiens, UniProt P42892).
T1 construct: ECE was partially purified from EA.hy926 grown in 150 roller; endogenous in cells; host or cells: EA.hy926 (human umbilical vein endothelial cells fused with A549); detergent-solubilised membranes, RCA-I lectin eluate
Put plainly: ECE assay (partially purified ECE from EA.hy926, ET-1 production by RIA). It counts as biochemical. The note with it: for IC50: 10 μM big ET-1, pH 7.0, 1.5 hours at 37° C., 3% DMSO, read-out: IC50 (Table III, Biological Activity of Compounds of the Present Invention).

Experiment [2] deals with T1, endothelin converting enzyme (ECE). Nature of the experiment: Cell-based assay (ET-1 level in medium of EA.hy926 cells by RIA). The settings on record: read-out: IC50 (Table IV, cell-based assay). The procedure: A permanent human cell line (EA.hy926), derived by fusing human umbilical vein endothelial cells with the permanent human cell line A549 (derived from a human lung carcinoma), was cultured as described, except that the medium also contained HAT supplements (100 μM hypoxanthine, 0.4 μM aminopterin, 16 μM thymidine). Edgell, C.-J. S., McDonald, C. C., and Graham, J. B. (1983) Proc. Natl. Acad. Sci. USA 80, 3734-3737. Cells from passages 40 to 50 were used. Subcultures were prepared by treating confluent cells with trypsin (0.5%) and seeded either onto 24 well plates for a cell-based assay or onto roller bottles for a partial purification of the enzyme.
ET-1 was measured by radioimmunoassay (RIA) as described previously with minor modifications. Ahn, K., Beningo, K., Olds, G., and Hupe, D. (1992) Proc. Nat. Acad. Sci. USA, 89, 8606-8610. Briefly, the RIA mixture (250 μl) contained the antibody against ET-1, an ET-1 sample, and [^125 I] ET-1 (15000 cpm) in buffer D. For the analysis of ET-1 from cell based assays, the final 6% bovine serum albumin was added. […] The amount of immunoreactive (ir) ET-1 was measured by counting the supernatant and determined from the standard curve. […]
EAhy926 cells (0.2-4×10^4) were seeded into 24-plates and cultures as described above. […] The ET-1 level from these samples were measured by RIA previously described. […]

Experiment [3] concerns ET-1 production in cultured bovine aortic endothelial cells. The settings on record: intracellular accumulation of pepstatin; cited from earlier work.
Experiment [4] deals with neutral endopeptidase 24.11 (NEP 24.11). Nature of the experiment: NEP 24.11 inhibition under ECE assay conditions. The experiment is classed as biochemical, human. The note with it: 100 μM thiorphan or 100 nM phosphoramidon. From the text:
The cell line, EA.hy926, contains neutral endopeptidase 24.11 (NEP 24.11) which also cleaves big ET-1 to ET-1 and c-terminal fragment (manuscript submitted). […] All the data were obtained in the linear range of time-course curves.

Experiment [5] addresses T2, endothelin converting enzyme (ECE) (Homo sapiens, UniProt P42892).
T2 construct: ECE was partially purified from EA.hy926 grown in 150 roller; endogenous in cells; host or cells: EA.hy926 (human umbilical vein endothelial cells fused with A549); detergent-solubilised membranes, RCA-I lectin eluate
T2 sequence (P42892 whole entry, looked up): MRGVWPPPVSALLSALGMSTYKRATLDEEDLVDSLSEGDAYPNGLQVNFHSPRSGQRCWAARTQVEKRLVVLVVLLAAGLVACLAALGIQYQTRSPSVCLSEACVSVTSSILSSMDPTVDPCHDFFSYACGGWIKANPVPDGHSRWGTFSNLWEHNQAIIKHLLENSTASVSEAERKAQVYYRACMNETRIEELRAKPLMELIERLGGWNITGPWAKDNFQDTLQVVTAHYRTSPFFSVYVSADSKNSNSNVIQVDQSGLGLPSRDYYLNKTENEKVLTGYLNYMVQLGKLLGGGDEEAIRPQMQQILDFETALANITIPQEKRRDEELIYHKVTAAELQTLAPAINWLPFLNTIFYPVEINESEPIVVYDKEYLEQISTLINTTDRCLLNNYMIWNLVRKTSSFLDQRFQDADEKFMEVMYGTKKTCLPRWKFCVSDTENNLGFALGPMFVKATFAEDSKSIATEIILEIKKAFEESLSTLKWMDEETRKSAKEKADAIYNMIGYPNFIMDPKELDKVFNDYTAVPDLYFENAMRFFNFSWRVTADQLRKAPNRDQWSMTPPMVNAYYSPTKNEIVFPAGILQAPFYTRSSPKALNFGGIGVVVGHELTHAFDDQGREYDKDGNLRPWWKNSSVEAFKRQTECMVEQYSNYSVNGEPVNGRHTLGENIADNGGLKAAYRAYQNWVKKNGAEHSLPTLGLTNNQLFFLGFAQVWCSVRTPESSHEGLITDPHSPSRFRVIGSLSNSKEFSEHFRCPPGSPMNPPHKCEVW
Nature of the experiment: ECE assay (partially purified ECE from EA.hy926, ET-1 production by RIA). The experiment is classed as biochemical. The settings on record: partially purified ECE from EA.hy926.

The mark [6] stands for this setting: partially purified ECE from EA.hy926.

Structures can show the parent of a compound that is named as a salt. Where two headings read alike, the source gives them in different places. Non-standard residues stand in square brackets, D forms with d. Residues, ends and D or L forms follow the SMILES beside them. *: point of attachment. Sta = CC(C)C[C@H](N)[C@@H](O)CC(=O)O; Isovaleryl = CC(C)CC(=O)*

For `c1cnc2c(c1)ccc1cccnc12` [1,10-phenanthroline], the “inhibition of the enzyme (in words)” value in experiment [1] (setting [6]) is “inhibited”.
Consider `O=C(O)CN(CCN(CC(=O)O)CC(=O)O)CC(=O)O` [EDTA], for which the “inhibition of the enzyme (in words)” value in experiment [1] is listed as “inhibited”.
For the molecule `O=C(O)CN(CCOCCOCCN(CC(=O)O)CC(=O)O)CC(=O)O` [EGTA], in experiment [1] (setting [6]), the “inhibition of the enzyme (in words)” value is reported as “inhibited”.
The IC50 is the midpoint of a concentration-inhibition curve. Regarding `CCN1CCCC(Nc2nc(C(Cl)(Cl)Cl)nc3ccc(I)cc23)C1` (stereo not drawn) [Example 1, (1-Ethyl-piperidin-3-yl)-(6-iodo-2-trichloromethyl-quinazolin-4-yl)-amine, Monohydrochloride], the values for the concentration for half-maximal inhibition (IC50) in experiment [1] and in experiment [2] were 4.2 ± 0.5 µM and 6.6 ± 1.5 µM, respectively.
Take `CCN1CCCC(Nc2nc(-c3ccccc3)nc3ccc(I)cc23)C1` (stereo not drawn) [Example 2, (1-Ethyl-piperidin-3-yl)-(6-iodo-2-phenyl-quinazolin-4-yl)-amine]: the IC50 in experiment [1] worked out at 9.2 ± 0.8 µM.
Consider `CCN1CCCC(Nc2nc(C(Cl)(Cl)Cl)nc3ccc(Cl)cc23)C1` (stereo not drawn) [Example 3, (1-Ethyl-piperidin-3-yl)-(6-chloro-2-trichloromethyl-quinazolin-4-yl)-amine], for which the 50% inhibitory concentration (IC50) in experiment [1] is 14.1 ± 1.5 µM; in experiment [2], 14.4 ± 1.1 µM.
As for `CCN1CCCC(Nc2nc(C(Cl)(Cl)Cl)nc3ccc([N+](=O)[O-])cc23)C1` (stereo not drawn) [Example 4, (1-Ethyl-piperidin-3-yl)-(6-nitro-2-trichloromethyl-quinazolin-4-yl)-amine], the IC50 in experiment [1] turned out to be 29.1 ± 5.4 µM.
Still for that read-out and setting: as for `CCN1CCCC(Nc2nc(C(C)(C)C)nc3ccc(I)cc23)C1` (stereo not drawn) [Example 5, (2-tert-Butyl-6-iodo-quinazolin-4-yl)-(1-ethyl-piperidin-3-yl)-amine], the figure is 17.6 ± 1.7 µM; as for `NCCNc1nc(C(Cl)(Cl)Cl)nc2ccc(I)cc12` [Example 6, N-(6-Iodo-2-trichloromethyl-quinazolin-4-yl)-ethane-1,2-diamine hydrochloride], 29.6 ± 6 µM.
Same read-out and setting: as for `CNCCNc1nc(C(Cl)(Cl)Cl)nc2ccc(I)cc12` [Example 7, N-(6-Iodo-2-trichloromethyl-quinazolin-4-yl)-N^1-methyl-ethane-1,2-diamine], the figure is 22.1 ± 4.8 µM; as for `CN(C)CCNc1nc(C(Cl)(Cl)Cl)nc2ccc(I)cc12` [Example 8, N-(6-Iodo-2-trichloromethyl-quinazolin-4-yl)-N^1,N^1-dimethyl-ethane-1,2-diamine], 11.1 ± 2.7 µM; as for `ClC(Cl)(Cl)c1nc(NCCN2CCCCC2)c2cc(I)ccc2n1` [Example 9], 3.7 ± 1.6 µM.
Regarding `ClC(Cl)(Cl)c1nc(NCCN2CCOCC2)c2cc(I)ccc2n1` [Example 10, (6-Iodo-2-trichloromethyl-quinazolin-4-yl)-(2-morpholin-4-yl-ethyl)-amine], the half-maximal inhibitory concentration (IC50) in experiment [1] was found to be 25.4 ± 4.2 µM.
Same read-out and setting: under `CCN1CCCC1CNc1nc(C(Cl)(Cl)Cl)nc2ccc(I)cc12` (stereo not drawn) [Example 11, (1-Ethyl-pyrrolidin-2-yl-methyl)-(6-iodo-2-trichloromethyl-quinazolin-4-yl)-amine] stands 12.4 ± 1 µM; under `ClC(Cl)(Cl)c1nc(NC2CN3CCC2CC3)c2cc(I)ccc2n1` (stereo not drawn) [Example 12, (1 -Aza-bicyclo[2,2,2,]oct-3-yl)-(6-iodo-2-trichloromethyl-quinazolin-4-yl)-amine], 11.1 ± 1.7 µM; under `CC(C)N(CCNc1nc(C(Cl)(Cl)Cl)nc2cc(Cl)ccc12)C(C)C` [Example 13, N-(7-Chloro-2-trichloromethyl-quinazolin-4-yl)-N',N'-diisopropyl-ethane-1,2-diamine], 66.6 ± 11.8 µM.
Still for that read-out and setting: under `O=C(O)CN1CCCC(Nc2nc(C(Cl)(Cl)Cl)nc3ccc(I)cc23)C1` (stereo not drawn) [Example 14, [3-(6-Iodo-2-trichloromethyl-quinazolin-4-yl-amino)-piperidin-1-yl]-acetic acid potassium salt] stands 75.5 ± 11.6 µM; under `CN(C)CC(CN(C)C)Nc1nc(C(Cl)(Cl)Cl)nc2ccc(I)cc12` [Example 16, N'-(6-Iodo-2-trichloromethyl-quinazolin-4-yl)-N,N,N",N"-tetramethyl-propane-1,2,3-triamine monohydrochloride], 8.4 ± 1.4 µM.
On the same count and under the same terms, as for `CCN1CCCC(Nc2nc(C(F)(F)F)nc3ccc(I)cc23)C1` (stereo not drawn) [Example 17, (1-Ethyl-piperidin-3-yl)-(6-iodo-2-trifluoromethyl-quinazolin-4-yl)-amine], the figure is 2.3 ± 0.3 µM.
`CC(C)C[C@H](NC(=O)[C@H]1O[C@@H]1C(=O)O)C(=O)NCCCCN=C(N)N` [Example E-64]: the “inhibition of the enzyme (in words)” value in experiment [1] (setting [6]) is “not inhibited”.
With `CC(C)C[C@H](NC(=O)[C@@H](O)[C@H](N)Cc1ccccc1)C(=O)O` [bestatin], in experiment [1] (setting [6]), the “inhibition of the enzyme (in words)” value was “not inhibited”.
The same measure, in the same setting: under `C[C@H](CS)C(=O)N1CCC[C@H]1C(=O)O` [captopril] stands “not inhibited”; under `C[C@H](N[C@@H](CCc1ccccc1)C(=O)O)C(=O)N1CCC[C@H]1C(=O)O` [enalaprilat], “not inhibited”.
For `CC(=O)N[C@@H](CC(C)C)C(=O)N[C@@H](CC(C)C)C(=O)N[C@H](C=O)CCCNC(=N)N` [leupeptin], in experiment [1] (setting [6]), the “inhibition of the enzyme (in words)” value was “not inhibited”.
The same measure, in the same setting: under `CC(C)CC(=O)N[C@H](C(=O)N[C@H](C(=O)N[C@@H](CC(C)C)[C@@H](O)CC(=O)N[C@@H](C)C(=O)N[C@@H](CC(C)C)[C@@H](O)CC(=O)O)C(C)C)C(C)C` [pepstatin A] (Isovaleryl-VV[Sta]A[Sta]-OH) stands “not inhibited”.
On to `CC(C)CC(=O)N[C@H](C(=O)N[C@H](C(=O)N[C@@H](CC(C)C)[C@@H](O)CC(=O)N[C@@H](C)C(=O)N[C@@H](CC(C)C)[C@@H](O)CC(=O)O)C(C)C)C(C)C` [pepstatin] (Isovaleryl-VV[Sta]A[Sta]-OH), for which the “inhibition of ET-1 production” value in experiment [3] is on record as “did not inhibit ET-1 production”.
With `O=S(=O)(F)Cc1ccccc1` [phenylmethlysulfonyl fluoride], the “inhibition of the enzyme (in words)” value in experiment [1] (setting [6]) is given as “not inhibited”.
Consider `O=C(O)CNC(=O)C(CS)Cc1ccccc1` (stereo not drawn) [thiorphan], for which, in experiment [1] (100 μM thiorphan or 100 nM phosphoramidon), the “effect on ECE activity at NEP-blocking concentration” value was “without affecting the ECE activity”. Also, in experiment [1] (setting [6]), the “inhibition of the enzyme (in words)” value is given as “not inhibited”. For the same molecule, the “NEP 24.11 inhibition” value in experiment [4] is given as “completely inhibited”.

B1: soybean trypsin inhibitor: soybean trypsin inhibitor (protein, UniProt P01070 25-205, looked up)
Trypsin inhibitor A: DFVLDNEGNPLENGGTYYILSDITAFGGIRAAPTGNERCPLTVVQSRNELDKGIGTIISSPYRIRFIAEGHPLSLKFDSFAVIMLCVGIPTEWSVVEDLPEGPAVKIGENKDAMDGWFRLERVSDDEFNNYKLVFCPQQAEDDKCGDIGISIDHDDGTRRLVVSKNKPLVVQFQKLDKESL
B1: the “inhibition of the enzyme (in words)” value in experiment [5] was “not inhibited”.

(Values after patent publication US5773444A, “Quinazolines as inhibitors of endothelin converting enzyme” (Warner-Lambert Company, priority 1997, dated 1998).)
